Measurements from ChEMBL document CHEMBL5661965, “CI-1033, a pan-erbB tyrosine kinase inhibitor” (Semin Oncol, 2001).

Experiments:
Assay type in all cases: functional
[1] = system: A-431; assay: Antitumor activity against human A-431 cells xenografted in mouse assessed as average tumor volume at 20 to 40 mg/kg/day, po started on day 14 post-implant and measured on day 23 (reference value: >1200 mg); conditions: dose 20-40 mg/kg/day, time 23 day
[2] = system: A-431; assay: Antitumor activity against human A-431 cells xenografted in mouse assessed as reduction in average tumor volume at 1.25 to 40 mg/kg/day, po started on day 14 post-implant, stopped on day 66, and then restarted on day 76 for 2 additional weeks; conditions: dose 1.25-40 mg/kg/day, read-out: MED
[3] = system: A-431; assay: Antitumor activity against human A-431 cells xenografted in mouse assessed as average tumor volume at 1.25 to 10 mg/kg/day, po started on day 14 post-implant and measured on day 23 (reference value: >1200 mg); conditions: dose 1.25-10 mg/kg/day, time 23 day

SMILES: C=CC(=O)Nc1cc2c(Nc3ccc(F)c(Cl)c3)ncnc2cc1OCCCN1CCOCC1.Cl.Cl [CANERTINIB DIHYDROCHLORIDE]
- Activity [1]: <=100 mg
- minimal effective dose [2]: 1.25 mg/kg/day
- Activity [3]: 175 mg
